The nature of data set [1]: Molar enthalpy of transition or fusion. The settings on record: Crystal; DSC.
For data set [2] the following is noted: Crystal; DTA.

Molecules are shown by their SMILES. ± gives the expanded uncertainty stated by the source.

Turning to `NC(=O)c1ccccc1O` [2-hydroxybenzamide], the “Molar enthalpy of transition or fusion” value in data set [1] turned out to be 6.93 ± 0.191 kcal/mol. Moreover, the Normal melting temperature in data set [2] is 138.70 ± 1.1 °C.

The record behind these values is the NIST ThermoML archive (doi:10.1021/je060178m).
